From US8815891B2, “Tricyclic derivative or pharmaceutically acceptable salts thereof, preparation method thereof, and pharmaceutical composition containing the same” (Je Il Pharmaceutical Co., Ltd., priority 2008, dated 2014) come the findings set out here.

Counter-ions that a name gives are not always drawn.

The target in the first assay is PARP-1 enzyme (Homo sapiens (Human), UniProt P09874). Description: Poly(ADP-ribose)polymerase [PARP-1] enzyme inhibitory activity (Trevigen PARP Assay kit). The format is biochemical.
Sequence of PARP-1 enzyme (P09874 whole entry): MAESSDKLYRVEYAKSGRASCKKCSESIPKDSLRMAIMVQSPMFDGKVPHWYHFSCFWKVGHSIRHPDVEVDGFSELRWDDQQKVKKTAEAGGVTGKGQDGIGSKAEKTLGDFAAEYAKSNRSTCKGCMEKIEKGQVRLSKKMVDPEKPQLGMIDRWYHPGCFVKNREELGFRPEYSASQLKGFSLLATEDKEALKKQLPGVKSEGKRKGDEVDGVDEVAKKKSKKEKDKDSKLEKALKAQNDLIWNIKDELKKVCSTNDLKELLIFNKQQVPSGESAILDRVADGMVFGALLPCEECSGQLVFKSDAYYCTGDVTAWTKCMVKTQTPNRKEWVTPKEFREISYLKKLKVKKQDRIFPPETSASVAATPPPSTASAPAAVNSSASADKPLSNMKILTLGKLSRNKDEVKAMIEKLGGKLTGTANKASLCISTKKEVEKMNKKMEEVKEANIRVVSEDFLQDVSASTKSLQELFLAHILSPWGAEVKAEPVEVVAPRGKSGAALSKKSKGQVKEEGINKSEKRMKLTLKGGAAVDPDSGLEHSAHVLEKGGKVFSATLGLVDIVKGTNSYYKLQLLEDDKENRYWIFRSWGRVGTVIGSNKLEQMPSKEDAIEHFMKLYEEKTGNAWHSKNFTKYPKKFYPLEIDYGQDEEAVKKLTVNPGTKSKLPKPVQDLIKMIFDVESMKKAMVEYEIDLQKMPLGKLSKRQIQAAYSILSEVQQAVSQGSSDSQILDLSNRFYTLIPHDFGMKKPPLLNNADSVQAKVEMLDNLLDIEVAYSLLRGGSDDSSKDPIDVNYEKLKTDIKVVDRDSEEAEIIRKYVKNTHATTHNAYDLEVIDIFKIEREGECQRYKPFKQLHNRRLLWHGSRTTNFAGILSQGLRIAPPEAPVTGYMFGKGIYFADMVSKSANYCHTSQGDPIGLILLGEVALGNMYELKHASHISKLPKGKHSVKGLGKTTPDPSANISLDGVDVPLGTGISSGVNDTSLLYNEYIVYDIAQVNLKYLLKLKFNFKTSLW
Settings: not given
The procedure: The activity of the compounds according to the present invention to inhibit the PARP-1 enzyme was examined using a PARP Assay kit (4671-096-K) purchased from Trevigen. The assay was performed following a modified previously reported method by Lee et al [Methods Find, Exp. Clin. Pharmacol., 27, 617-622, 2005].
Histone was coated on 384-well plate, which is a small volume PS plate (784101) of Greiner Bio-One, and left at 25° C. for 2 hours. After that, the plate was rinsed four times with PBS (7.5 mM Na2HPO4, 2.5 mM NaH2PO4, 145 mM NaCl, pH 7.4), and in order to prevent non-specific reaction, the Strep-diluent (provided from kit of Trevigen) was added and left at 25° C. for one hour. After one hour, the plate was again rinsed with PBS four times, and the compounds of the Examples in various concentrations were put into reactant containing PARP-1 enzyme (0.12 unit/well), 2×PARP cocktail (1.95 mM NAD^+, 50 uM biotinylated NAD^+, and activated DNA in 50 mM Tris pH 8.0, 25 mM MgCl2) and allowed to react at 25° C. for 30 minutes. After 30 minutes, each well was rinsed with PBS four times, and in order to measure the amount of rybosylation by the PARP enzyme, strepavidin-linked peroxidase (Strep-HRP, 1:1000 diluted) was added and allowed to react at 37° C. for 30 minutes. The plate was rinsed with PBS four times, and TACS-Sapphire substrate was put and allowed to react at 25° C. for 10 minutes so that color reaction occurred. Finally, the reaction was terminated by the addition of 0.2 N HCl. The amount of histone ribosylation formed by PARP-1 enzyme was quantified at 450 nm using Wallac EnVision™ (PerkinElmer Oy, Turku, Finland).
In turn, `COc1cc(CN2CCC(=NO)CC2)cc2[nH]c(=O)c3c(c12)NCCC3` [Example 79, 8-{[4-(Hydroxyimino)piperidine-1-yl]methyl}-10-methoxy-1,2,3,4-tetrahydrobenzo[h][1,6]naphthyridine-5(6H)-one trihydrochloride] came in with a concentration for half-maximal inhibition (IC50) of 180 nM.

The same assay, now with this note: PARP-1 enzyme, histone ribosylation, 450 nm; read-out: PARP-1 Inhibitory activity IC50.
As for `CC[N+]1(CC)CCN(CCOc2ccc3[nH]c(=O)c4c(c3c2)NCCC4)CC1` [Example 28, 1,1-Diethyl-4-[2-(5-oxo-1,2,3,4,5,6-hexahydrobenzo[h][1,6]naphthyridine-9-yloxy]ethyl)piperazine-1-ium chloride], the 50% inhibitory concentration (IC50) is greater than 4000 nM.
In the case of `O=c1[nH]c2ccc(OCCO)cc2c2c1CCCN2` [Example 24, 9-(2-Hydroxyethoxy)-1,2,3,4-tetrahydrobenzo[h][1,6]naphthyridine-5(6H)-one hydrochloride], the concentration for half-maximal inhibition (IC50) worked out at 1080 nM.
In the case of `COCCOc1cc(CN(C)C)cc2[nH]c(=O)c3c(c12)NCCC3` [Example 116, 8-[(Dimethylamino)methyl]-10-(2-methoxyetoxy)-1,2,3,4-tetrahydrobenzo[h][1,6]naphthyridine-5(6H)-one dihydrochloride], the IC50 was 180 nM.
Still for that read-out and setting: with `CN(C)CCN(C)Cc1ccc2c3c(c(=O)[nH]c2c1)CCCN3` [Example 54, 8-{[(2-(Dimethylaminoethyl)(methyl)amino]methyl}-1,2,3,4-tetrahydrobenzo[h][1,6]naphthyridine-5(6H)-one trihydrochloride] the figure was 930 nM; with `CCN1CCCc2c1c1cc(OC)ccc1[nH]c2=O` [Example 9, 1-Ethyl-9-methoxy-1,2,3,4-tetrahydrobenzo[h][1,6]naphthyridine-5(6H)-one hydrochloride], greater than 4000 nM; with `CN(C)CCCc1ccc2[nH]c(=O)c3c(c2c1)NCCC3` [Example 33, 9-[3-(Dimethylamino)propyl]-1,2,3,4-tetrahydrobenzo[h][1,6]naphthyridine-5(6H)-one dihydrochloride], less than 1000 nM.
Consider `CN(C)CCOc1ccc2[nH]c(=O)c3c(c2c1)NCCC3` [Example 16, 9-[2-(Dimethylamino)ethoxy]-1,2,3,4-tetrahydrobenzo[h][1,6]naphthyridine-5(6H)-one dihydrochloride], for which the IC50 is less than 1000 nM.
On the same count and under the same terms, the figure for `CCN(C)Cc1cc(OC)c2c3c(c(=O)[nH]c2c1)CCCN3` [Example 76, 8-{[Ethyl(methyl)amino]methyl}-10-methoxy-1,2,3,4-tetrahydrobenzo[h][1,6]naphthyridine-5(6H)-one] is 50 nM; for `CN(C)CCc1ccc2[nH]c(=O)c3c(c2c1)NCCC3` [Example 31, 9-[2-(Dimethylamino)ethyl]-1,2,3,4-tetrahydrobenzo[h][1,6]naphthyridine-5(6H)-one dihydrochloride] it is 1070 nM.
For `COc1ccc2c3c(c(=O)[nH]c2c1)CCCN3` [Example 1, 8-Methoxy-1,2,3,4-tetrahydrobenzo[h][1,6]naphthyridine-5(6H)-one hydrochloride], the concentration for half-maximal inhibition (IC50) is greater than 4000 nM.
On the same count and under the same terms, the figure for `CN1CCC(Oc2ccc3[nH]c(=O)c4c(c3c2)N(C)CCC4)CC1` [Example 14, 1-Methyl-9-(1-methylpiperidine-4-yloxy)-1,2,3,4-tetrahydrobenzo[h][1,6]naphthyridine-5(6H)-one dihydrochloride] is greater than 4000 nM; for `O=c1[nH]c2cc(Cn3ccnc3)ccc2c2c1CCCN2` [Example 64, 8-[(1H-Imidazole-1-yl)methyl]-1,2,3,4-tetrahydrobenzo[h][1,6]naphthyridine-5(6H)-one hydrochloride] it is 540 nM.

Staying with this assay, now noted: read-out: PARP-1 Inhibitory activity IC50.
For the molecule `CN1CCN(Cc2ccc3c4c(c(=O)[nH]c3c2)CCCN4)CC1` [Example 55, 8-[(4-Methylpiperazine-1-yl)methyl]-1,2,3,4-tetrahydrobenzo[h][1,6]naphthyridine-5(6H)-one trihydrochloride], the half-inhibitory concentration (IC50) was 1720 nM.
Regarding `CN(CCC(=O)O)Cc1ccc2c3c(c(=O)[nH]c2c1)CCCN3` [Example 58, 3-{Methyl[(5-oxo-1,2,3,4,5,6-hexahydrobenzo[h][1,6]naphthyridine-8-yl)methyl]amino}propanoic acid dihydrochloride], the half-maximal inhibitory concentration (IC50) stood at 920 nM.
Still for that read-out and setting: the figure for `CCc1ccc2c3c(c(=O)[nH]c2c1)CCCN3` [Example 40, 8-Ethyl-1,2,3,4-tetrahydrobenzo[h][1,6]naphthyridine-5(6H)-one hydrochloride] is greater than 4000 nM.
Turning to `COc1cc(CN(C)C2CCCC2)cc2[nH]c(=O)c3c(c12)NCCC3` [Example 92, 8-{[Cyclopentyl(methyl)amino]methyl}-10-methoxy-1,2,3,4-tetrahydrobenzo[h][1,6]naphthyridine-5(6H)-one dihydrochloride], the IC50 is 190 nM.
With `CN(C)CCCOc1ccc2c3c(c(=O)[nH]c2c1)CCCN3` [Example 36, 8-[3-(Dimethylamino)propoxy]-1,2,3,4-tetrahydrobenzo[h][1,6]naphthyridine-5(6H)-one dihydrochloride], the 50% inhibitory concentration (IC50) was 3020 nM.
The same measure, in the same setting: with `COc1cc(CNC(C)C)cc2[nH]c(=O)c3c(c12)NCCC3` [Example 88, 8-[(Isopropylamino)methyl]-10-methoxy-1,2,3,4-tetrahydrobenzo[h][1,6]naphthyridine-5 (6H)-one dihydrochloride] the figure was 110 nM.
Still for that read-out and setting: the figure for `COc1cc(CN(C)CCOC(C)C)cc2[nH]c(=O)c3c(c12)NCCC3` [Example 83, 8-{[(2-Isopropoxyethyl)(methyl)amino]methyl}-10-methoxy-1,2,3,4-tetrahydrobenzo[h][1,6]naphthyridine-5(6H)-one dihydrochloride] is 320 nM.
Same read-out and setting: with `CN(C)CCCc1ccc2[nH]c(=O)c3c(c2c1)NCCC3` [Example 33, 9-[3-(Dimethylamino)propyl]-1,2,3,4-tetrahydrobenzo[h][1,6]naphthyridine-5(6H)-one dihydrochloride] the figure was 930 nM.
As to `CN(C)CCOc1ccc2[nH]c(=O)c3c(c2c1)NCCC3` [Example 16, 9-[2-(Dimethylamino)ethoxy]-1,2,3,4-tetrahydrobenzo[h][1,6]naphthyridine-5(6H)-one dihydrochloride], the IC50 is 370 nM.
On the same count and under the same terms, the figure for `COCCN(C)Cc1cc(OC)c2c3c(c(=O)[nH]c2c1)CCCN3` [Example 81, 10-Methoxy-8-{[(2-methoxyethyl)(methyl)amino]methyl}-1,2,3,4-tetrahydrobenzo[h][1,6]naphthyridine-5(6H)-one dihydrochloride] is 110 nM; for `CN(Cc1ccccc1)Cc1ccc2c3c(c(=O)[nH]c2c1)CCCN3` [Example 51, 8-{[Benzyl(methyl)amino]methyl}-1,2,3,4-tetrahydrobenzo[h][1,6]naphthyridine-5(6H)-one dihydrochloride] it is 930 nM.
The same measure, in the same setting: with `CCN(CC)Cc1cc(OC)c2c3c(c(=O)[nH]c2c1)CCCN3` [Example 86, 8-[(Diethylamino)methyl]-10-methoxy-1,2,3,4-tetrahydrobenzo[h][1,6]naphthyridine-5(6H)-one dihydrochloride] the figure was 110 nM.
Regarding `CCNCc1cc(OC)c2c3c(c(=O)[nH]c2c1)CCCN3` [Example 75, 8-[(Ethylamino)methyl]-10-methoxy-1,2,3,4-tetrahydrobenzo[h][1,6]naphthyridine-5(6H)-one dihydrochloride], the concentration for half-maximal inhibition (IC50) was found to be 50 nM.
On the same count and under the same terms, with `CCN(C)Cc1ccc2c3c(c(=O)[nH]c2c1)CCCN3C` [Example 71, 8-{[Ethyl(methyl)amino]methyl}-1-methyl-1,2,3,4-tetrahydrobenzo[h][1,6]naphthyridine-5(6H)-one dihydrochloride] the figure was 3000 nM; with `COc1cc(CN(C)CCF)cc2[nH]c(=O)c3c(c12)NCCC3` [Example 94, 8-{[(2-Fluoroethyl)(methyl)amino]methyl}-10-methoxy-1,2,3,4-tetrahydrobenzo[h][1,6]naphthyridine-5(6H)-one dihydrochloride], 170 nM.
Still for that read-out and setting: the figure for `CCCN1CCC(Oc2ccc3[nH]c(=O)c4c(c3c2)NCCC4)CC1` [Example 11, 9-(1-Propylpiperidine-4-yloxy)-1,2,3,4-tetrahydrobenzo[h][1,6]naphthyridine-5(6H)-one dihydrochloride] is 1030 nM; for `CC(C)N(C)Cc1ccc2c3c(c(=O)[nH]c2c1)CCCN3` [Example 59, 8-{[Isopropyl(methyl)amino]methyl}-1,2,3,4-tetrahydrobenzo[h][1,6]naphthyridine-5(6H)-one dihydrochloride] it is 190 nM.
On the same count and under the same terms, the figure for `O=c1[nH]c2cc(CN3CCOCC3)ccc2c2c1CCCN2` [Example 49, 8-(Morpholinomethyl)-1,2,3,4-tetrahydrobenzo[h][1,6]naphthyridine-5(6H)-one dihydrochloride] is 620 nM; for `COc1cc(CN2CCCCC2)cc2[nH]c(=O)c3c(c12)NCCC3` [Example 84, 10-Methoxy-8-(piperidine-1-ylmethyl)-1,2,3,4-tetrahydrobenzo[h][1,6]naphthyridine-5(6H)-one dihydrochloride] it is 150 nM; for `COc1cc(CN(C)C(C)C)cc2[nH]c(=O)c3c(c12)NCCC3` [Example 93, 8-{[Isopropyl(methyl)amino]methyl}-10-methoxy-1,2,3,4-tetrahydrobenzo[h][1,6]naphthyridine-5(6H)-one dihydrochloride] it is 140 nM.
`COc1cc(CN2CCCC2)cc2[nH]c(=O)c3c(c12)NCCC3` [Example 77, 10-Methoxy-8-(pyrrolidine-1-ylmethyl)-1,2,3,4-tetrahydrobenzo[h][1,6]naphthyridine-5(6H)-one dihydrochloride]: the half-inhibitory concentration (IC50) turned out to be 50 nM.

As usually defined, the IC50 is the concentration at which inhibition is half-maximal.
